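Briefly, cells in 96-well plates were exposed to five compound concentrations for 48 h, and endpoints were estimated by linear interpolation. At the GI50, growth is halved.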 Activity calls are given as the source filed them. Rule as the data show it: active = GI50 up to about 1.1 µM and inactive = higher.
Tests used:
Test in all cases: inhibition of tumour cell growth, NCI panel, 48 h
[1] = tested on: IGROV-1
[2] = tested on: HOP-18
[3] = tested on: A549
[4] = tested on: ACHN
[5] = tested on: SF-268
[6] = tested on: DMS-273
[7] = tested on: LOX IMVI
[8] = tested on: RXF 393
[9] = tested on: M14
[10] = tested on: HCT-15
[11] = tested on: COLO 205
[12] = tested on: UO-31
[13] = tested on: SN12C
[14] = tested on: A498
[15] = tested on: OVCAR-8
[16] = tested on: RPMI-8226
[17] = tested on: TK-10
[18] = tested on: SNB-78
[19] = tested on: SW-620
[20] = tested on: OVCAR-3
[21] = tested on: KM-20L2
[22] = tested on: UACC-257
[23] = tested on: MOLT-4
[24] = tested on: U-251
[25] = tested on: KM12
[26] = tested on: NCI-H226
[27] = tested on: HCT-116
[28] = tested on: SNB-75
[29] = tested on: UACC-62
[30] = tested on: Malme-3M
[31] = tested on: HOP-92
[32] = tested on: NCI-H522
[33] = tested on: HL-60
[34] = tested on: SK-OV-3
[35] = tested on: LXFL 529
[36] = tested on: M19-MEL
[37] = tested on: OVCAR-4
[38] = tested on: K562
[39] = tested on: SK-MEL-28
[40] = tested on: RXF 631
[41] = tested on: 786-0
[42] = tested on: DLD-1
[43] = tested on: SK-MEL-2
[44] = tested on: CCRF-CEM
[45] = tested on: HT-29
[46] = tested on: NCI-H23
[47] = tested on: OVCAR-5
[48] = tested on: HCC 2998
[49] = tested on: NCI-H460
[50] = tested on: CAKI-1
[51] = tested on: HOP-62
[52] = tested on: EKVX
[53] = tested on: SK-MEL-5
[54] = tested on: SF-539
[55] = tested on: DMS-114
[56] = tested on: SF-295
[57] = tested on: SR
[58] = tested on: SNB-19
[59] = tested on: XF498

In the case of `CCN(CC)CCCC(C)Nc1c(Sc2cnc3cc(Cl)ccc3c2NC(C)CCCN(CC)CC)cnc2cc(Cl)ccc12` (centres undefined), the GI50 [1] is reported as 1.87 µM (inactive), the GI50 [2] is reported as 2.17 µM (inactive) and the GI50 [3] is reported as 1.68 µM (inactive). For the same compound, the GI50 [4] was 1.98 µM (inactive), the GI50 [5] was 2.02 µM (inactive) and the GI50 [6] was 1.72 µM (inactive). The GI50 [7] was 1.78 µM (inactive), the GI50 [8] was 1.67 µM (inactive) and the GI50 [9] was 1.81 µM (inactive). The GI50 [10] was 1.72 µM, the GI50 [11] was 1.46 µM (inactive) and the GI50 [12] was 21.1 µM (inactive). For the same compound, the GI50 [13] was 1.88 µM (inactive), the GI50 [14] was 1.85 µM (inactive) and the GI50 [15] was 1.69 µM (inactive). For the same compound, the GI50 [16] was 1.91 µM (inactive), the GI50 [17] was 1.79 µM (inactive) and the GI50 [18] was 2.73 µM (inactive). For the same compound, the GI50 [19] was 1.58 µM (inactive), the GI50 [20] was 1.9 µM (inactive) and the GI50 [21] was 1.66 µM (inactive). The GI50 [22] was 2.03 µM (inactive), the GI50 [23] was 2.37 µM (inactive) and the GI50 [24] was 1.63 µM (inactive). The GI50 [25] was 2.07 µM (inactive), the GI50 [26] was 1.76 µM (inactive) and the GI50 [27] was 1.37 µM (inactive). The GI50 [28] was 1.51 µM (inactive), the GI50 [29] was 1.74 µM (inactive) and the GI50 [30] was 2.13 µM (inactive). For the same compound, the GI50 [31] was 1.96 µM (inactive), the GI50 [32] was 1.73 µM (inactive) and the GI50 [33] was 1.82 µM (inactive). For the same compound, the GI50 [34] was 1.66 µM (inactive), the GI50 [35] was 1.92 µM (inactive) and the GI50 [36] was 1.62 µM (inactive). For the same compound, the GI50 [37] was 1.73 µM (inactive), the GI50 [38] was 1.55 µM (inactive) and the GI50 [39] was 1.86 µM (inactive). For the same compound, the GI50 [40] was 2.08 µM (inactive), the GI50 [41] was 1.54 µM (inactive) and the GI50 [42] was 1.91 µM (inactive). For the same compound, the GI50 [43] was 1.85 µM (inactive), the GI50 [44] was 2.2 µM (inactive) and the GI50 [45] was 1.65 µM (inactive). For the same compound, the GI50 [46] was 3.3 µM (inactive), the GI50 [47] was 1.73 µM (inactive) and the GI50 [48] was 0.269 µM (active). For the same compound, the GI50 [49] was 1.74 µM (inactive) and the GI50 [50] was 1.53 µM (inactive).
With `Cc1ccc(/C=C/C(=O)c2sc(-c3nc(C)c(C(=O)/C=C/c4ccc(C)cc4)s3)nc2C)cc1` the GI50 [1] was > 100 µM (inactive), the GI50 [2] was > 100 µM (inactive) and the GI50 [3] was > 100 µM (inactive). For the same compound, the GI50 [4] was > 100 µM (inactive), the GI50 [5] was > 100 µM (inactive) and the GI50 [6] was > 100 µM (inactive). For the same compound, the GI50 [7] was > 100 µM (inactive), the GI50 [8] was > 100 µM (inactive) and the GI50 [10] was > 100 µM. The GI50 [11] was > 100 µM (inactive), the GI50 [12] was > 100 µM (inactive) and the GI50 [13] was > 100 µM (inactive). For the same compound, the GI50 [14] was > 100 µM (inactive), the GI50 [15] was > 100 µM (inactive) and the GI50 [16] was > 100 µM (inactive). For the same compound, the GI50 [17] was > 100 µM (inactive), the GI50 [18] was > 100 µM (inactive) and the GI50 [19] was > 100 µM (inactive). The GI50 [20] was > 100 µM (inactive), the GI50 [21] was > 100 µM (inactive) and the GI50 [22] was > 100 µM (inactive). The GI50 [23] was > 100 µM (inactive), the GI50 [51] was > 100 µM (inactive) and the GI50 [24] was > 100 µM (inactive). The GI50 [25] was > 100 µM (inactive), the GI50 [26] was > 100 µM (inactive) and the GI50 [28] was 86.5 µM (inactive). The GI50 [29] was > 100 µM (inactive), the GI50 [30] was > 100 µM (inactive) and the GI50 [52] was > 100 µM (inactive). For the same compound, the GI50 [31] was > 100 µM (inactive), the GI50 [32] was 97.5 µM (inactive) and the GI50 [33] was > 100 µM (inactive). The GI50 [34] was > 100 µM (inactive), the GI50 [53] was > 100 µM (inactive) and the GI50 [36] was > 100 µM (inactive). The GI50 [38] was > 100 µM (inactive), the GI50 [39] was > 100 µM (inactive) and the GI50 [40] was > 100 µM (inactive). The GI50 [54] was > 100 µM (inactive), the GI50 [41] was > 100 µM (inactive) and the GI50 [42] was > 100 µM (inactive). The GI50 [43] was > 100 µM (inactive), the GI50 [44] was > 100 µM (inactive) and the GI50 [45] was > 100 µM (inactive). The GI50 [55] was > 100 µM (inactive), the GI50 [46] was > 100 µM (inactive) and the GI50 [47] was > 100 µM (inactive). For the same compound, the GI50 [48] was > 100 µM (inactive), the GI50 [56] was > 100 µM (inactive) and the GI50 [49] was > 100 µM (inactive). The GI50 [50] was > 100 µM (inactive).
`O=C1C=CC(=CC=C2C=CN(CCCCCCCCCCC(=O)NCCCCCCCCCCCC(=O)O)C=C2)C=C1` was tested, and the GI50 [1] was > 100 µM (inactive), the GI50 [3] was > 100 µM (inactive) and the GI50 [4] was > 100 µM (inactive). The GI50 [5] was > 100 µM (inactive), the GI50 [6] was > 100 µM (inactive) and the GI50 [7] was > 100 µM (inactive). For the same compound, the GI50 [8] was > 100 µM (inactive), the GI50 [9] was > 100 µM (inactive) and the GI50 [10] was > 100 µM. For the same compound, the GI50 [11] was > 100 µM (inactive), the GI50 [12] was > 100 µM (inactive) and the GI50 [13] was > 100 µM (inactive). The GI50 [14] was > 100 µM (inactive), the GI50 [15] was > 100 µM (inactive) and the GI50 [16] was > 100 µM (inactive). For the same compound, the GI50 [17] was > 100 µM (inactive), the GI50 [18] was > 100 µM (inactive) and the GI50 [19] was > 100 µM (inactive). The GI50 [20] was > 100 µM (inactive), the GI50 [21] was > 100 µM (inactive) and the GI50 [22] was > 100 µM (inactive). The GI50 [23] was > 100 µM (inactive), the GI50 [51] was > 100 µM (inactive) and the GI50 [24] was > 100 µM (inactive). The GI50 [25] was > 100 µM (inactive), the GI50 [26] was > 100 µM (inactive) and the GI50 [57] was > 100 µM (inactive). The GI50 [27] was > 100 µM (inactive), the GI50 [28] was > 100 µM (inactive) and the GI50 [58] was > 100 µM (inactive). The GI50 [29] was > 100 µM (inactive), the GI50 [30] was > 100 µM (inactive) and the GI50 [52] was > 100 µM (inactive). For the same compound, the GI50 [31] was > 100 µM (inactive), the GI50 [32] was > 100 µM (inactive) and the GI50 [33] was > 100 µM (inactive). For the same compound, the GI50 [34] was > 100 µM (inactive), the GI50 [53] was > 100 µM (inactive) and the GI50 [35] was > 100 µM (inactive). The GI50 [36] was > 100 µM (inactive), the GI50 [37] was > 100 µM (inactive) and the GI50 [38] was > 100 µM (inactive). The GI50 [39] was > 100 µM (inactive), the GI50 [40] was > 100 µM (inactive) and the GI50 [54] was > 100 µM (inactive). For the same compound, the GI50 [41] was > 100 µM (inactive), the GI50 [42] was > 100 µM (inactive) and the GI50 [44] was > 100 µM (inactive). For the same compound, the GI50 [45] was > 100 µM (inactive), the GI50 [55] was > 100 µM (inactive) and the GI50 [59] was > 100 µM (inactive). For the same compound, the GI50 [46] was > 100 µM (inactive), the GI50 [47] was > 100 µM (inactive) and the GI50 [48] was > 100 µM (inactive). For the same compound, the GI50 [56] was > 100 µM (inactive), the GI50 [49] was > 100 µM (inactive) and the GI50 [50] was > 100 µM (inactive).
